Where a SMILES comes first, the peptide text is derived from it. Bridges are numbered along the chain shown (N, C = ends).
Experiments:
[1] = tested on: RagOT-I cells / dendritic cells matured with treated 3LL cells; test: In vitro activation of OT-I CD8+ T cells by dendritic cells, IFN-γ ELISA; type: cell-based, mouse; conditions: versus negative control, CX4945 and Tat peptide
Description: Additionally, the ability of activating CD8+ T cells in vitro by these dendritic cells matured with peptide-treated 3LL cells was evaluated. For this purpose, dendritic cells previously co-incubated with tumor cells, under the conditions described above, were washed and loaded with the […] peptide from OVA, MHC class I restricted, at different concentrations (0, 10, 30 and 100 pg/mL) during three hours. After that time, they were washed again and co-incubated with RagOT-I cells in a 1:1 ratio for 48 hours. IFN-γ production was finally quantified by ELISA. RagOT-I cells co-incubated with dendritic cells previously incubated with untreated 3LL cells constituted the negative control of experiment.

[2] = tested on: L1210 cells; test: Tumor microenvironment in DBA/2 mice: serum cytokines and intratumoral cell populations; type: in vivo; conditions: for modulation in cytokine levels (IL12p70, TNF-α, IL-6, IL-10): Tat 20 mg/kg intratumoral, DOX 10 mM intratumoral, CX4945 75 mg/kg oral twice a day, five days; for intratumoral Foxp3+ T cell levels: peptide 20 mg/kg, DOX 10 mM, Tat 20 mg/kg, CX4945 75 mg/kg oral
Description: To study whether the peptide identified as SEQ ID NO: 1 was capable of modulating the tumor microenvironment, female DBA/2 mice, 6-8 weeks old, and between 17-19 grams were inoculated with 0.5×10^6 L1210 cells, subcutaneously, into right flank (inguinal inoculation). Seven days after tumor challenge, 42 mice with palpable and non-measurable tumor were selected, which were random assigned to six groups of seven animals each. […] DOX (10 mM) and Tat peptide (20 mg/kg), were administered intratumorally, in a final volume of 50 μL, a daily inoculation for five days. The compound CX4945 (75 mg/kg) was administered in 25 mM NaH2PO4 buffer, twice a day, orally, for five days. Seven days after the end of the treatment, the mice were euthanized to obtain the tumors (day 18 of the procedure). Before sacrificing the mice, blood samples were obtained for the cytokines (IL-6, IL-10, IL-12p70, TNF-α) detection by ELISA. Tumors were cut into small pieces and transferred to gentleMACS tubes with RPMI medium, supplemented with an enzyme cocktail from Tumor Dissociation kit (Miltenyi Biotech, Germany). Tumor dissociation was performed using the gentleMACS™ Dissociator kit and a tumor dissociation kit (Miltenyi Biotech, Germany). The digested suspension was filtered, centrifuged and labeled with specific antibodies against CD8, CD4, Foxp3, CD11c, CD86 and CD40.

[3] = tested on: L1210 cells; test: Vaccination with treated tumor cells, then challenge with live cells; type: in vivo, DBA/2 mice; conditions: vaccinated with cells treated with 5 μM CX4945 for 24 hours
Description: In order to explore whether the cell death induced by the peptide identified as SEQ ID NO: 1 had any immunomodulatory effect, a vaccination schedule was performed in mice with tumor cells previously treated with the peptide identified as SEQ ID NO: 1. For this purpose, 1×10^6 L1210 cells treated in vitro with 40 μM of the peptide identified as SEQ ID NO: 1, or time-matched untreated cells during 3 hours were subcutaneously injected in 0.1 mL in the inguinal area into right flank of 6-8 weeks female DBA/2 mice. After seven days, 1×10^6 live L1210 cells were inoculated on opposite flank, and tumor growth and volume were evaluated until day 45. Tumors were measured with Vernier calipers, three times a week, tumor volume was estimated using the formula: Volume=width^2 (mm)×length/2 (mm). As a positive control, cells treated with 15 μM DOX for 24 hours were used for vaccination. A group vaccinated with 5 μM CX4945-treated cells for 24 hours was also included. In total 4 groups were formed of 10 mice each group.

[4] = tested on: 3LL-OVA cells; test: Cellular immune response, IFN-γ ELISPOT after inoculation of treated cells; type: in vivo, C57/BL6 mice; conditions: 3LL-OVA cells treated with 40 μM peptide 3 hours, 5 μM CX4945 or 40 μM Tat 3 hours; lymph node cells after 5 days
[5] = tested on: HL-60 cells; test: Phagocytosis of treated tumor cells by M1 and M2 macrophages; type: cell-based; conditions: peptide 40 μM and 10 μM 5 hours, CX4945 5 μM 24 hours, Tat 40 μM 5 hours
Description: (§1) Treatment with the peptide identified as SEQ ID NO: 1, as described in examples 2 and 3, is capable of increasing “eat me” signals and decreasing “don't eat me” signals. Therefore, it fostered to evaluate whether the treatment with the peptide identified as SEQ ID NO: 1 facilitate phagocytosis of tumor cells by macrophages, and whether this is performed by M1 or M2 macrophages. For that purpose, HL-60 and OCI-AML3 leukemia tumor cell lines were previously stained with 0.5 μM CFSE and treated with 10 or 40 μM of the peptide identified as SEQ ID NO: 1, for five hours, 5 μM CX4945 for 24 hours or 40 μM Tat during 5 hours. Subsequently, cells were washed and co-cultured with each type of M1 and M2 macrophages, at a 1:1 ratio for three hours. Different types of macrophages were obtained from PBMC of healthy donors by Ficoll™ gradient. Monocytes were purified by positive selection, using CD14 beads with an MS column (Miltenyi Biotech, Germany), obtaining 96% purity. Monocytes were seeded at 0.25×10^6 cells/mL/well, in 12-wells plates and were induced with 100 ng/mL of GM-CSF, for seven days, and with 50 ng/mL of IFN-γ for last 24 hours, to obtain M1 macrophages. M2 macrophages were induced with 50 ng/mL of M-CSF for seven days and 100 ng/mL of IL-10 for last 24 hours. […]

[6] = tested on: OCI-AML3 cells; test: as above; type: cell-based; conditions: peptide 40 μM and 10 μM 5 hours, CX4945 5 μM 24 hours, Tat 40 μM 5 hours
Description: as §1

[7] = tested on: PDL1 in A549 cells; test: PDL1 levels by flow cytometry; type: cell-based; conditions: 30 μM peptide, 5 μM CX4945 or 30 μM Tat peptide, 24 hours
Description: (§2) Immune checkpoints are currently an important target in cancer immunotherapy, due to their immunosuppressive role during the course of this disease. Taking this into account, effect of the peptide identified as SEQ ID NO: 1 on modulation of PDL1 levels in two non-small cell lung cancer cell lines: […], was evaluated. For that, 5×10^4 cells were seeded in 24-well plates. The day after, cells were treated with 30 μM peptide identified as SEQ ID NO: 1; 5 μM CX4945 or 30 μM Tat peptide, for 24 hours. After treatment, cells were collected, staining with an anti-PDL1 antibody and analyzed by flow cytometry.

[8] = tested on: PDL1 in H460 cells; test: PDL1 levels by flow cytometry; type: cell-based; conditions: 30 μM peptide, 5 μM CX4945 or 30 μM Tat peptide, 24 hours
Description: as §2

[9] = tested on: Lewis Lung Carcinoma cells; test: Anti-PDL1 therapy in a murine model of lung cancer; type: in vivo, C57/BL6 mice
Source text: Taking into account the results obtained in the in vitro test, it was decided to evaluate whether the use of the peptide identified as SEQ ID NO: 1 improved the antitumor efficacy of anti-PDL1 therapy in a murine model of lung cancer. For that, 2×10^5 Lewis Lung Carcinoma cells were subcutaneously implanted (day 0) in 6-8 weeks old C57/BL6 female mice with 17-19 grams of body weight. Nine days after the tumor challenge, 42 animals with 40 mm^3 tumors were randomized into six groups with seven mice each. CX4945 (75 mg/kg) was orally administered in 25 mM NaH2PO4 buffer twice daily. 40 mg/kg of the peptide identified as SEQ ID NO: 1 and 100 μg anti-PDL1 antibody (clone 10F.9G2, isotype rat IgG2b kappa) were intraperitoneally applied. Tumor volume and body weight were determined 3 times a week for 40 days. Tumor volume was measured and calculated as described in Example 7.

[10] = tested on: K562 cells; test: NK cytotoxic activity, Cr51 release; type: cell-based; conditions: 50 μM
Description: The release of danger signals such as HSP70 and CRT has been reported to be involved in increasing the susceptibility of tumor cells toward cytotoxic activity of NK cells. Therefore, the effect of the peptide identified as SEQ ID NO: 1 on the susceptibility of tumor cells toward NK cytotoxic activity was evaluated. To do that, the classic target cells to NK activity, K562 cells, were employed. Target cells were labeled with Cr^51 (approximate specific activity: 100 μCi/μg) by incubation for 70 minutes at 37° C. Subsequently, target cells were washed three times with RPMI medium supplemented with 2% FBS and seeded in 96-well plates, at a target:effector ratio of 1:25. On the other hand, NK cells were isolated from peripheral blood mononuclear cells (PBMC) of healthy donors, by negative selection, using magnetic beads (Miltenyi Biotec). Thus, CD56+CD3− NK cells were obtained with more than 96% purity. The peptide identified as SEQ ID NO: 1 was added to the co-culture at 12.5; 25 and 50 μM. After 4 hours of incubation, supernatant was collected for the measurement of Cr^51 release using a scintillation counter. The percentage of specific lysis was calculated as follows: […]
Target cells without coincubation with effector cells were employed as spontaneous lysis control. Target cells with the peptide identified as SEQ ID NO: 1 constitute the toxicity control of the peptide.

[11] = tested on: OCI-AML3 and HL-60 tumor cells; conditions: read-out: IC50 dose

COc1cccc2c1C(=O)c1c(O)c3c(c(O)c1C2=O)C[C@@](O)(C(=O)CO)C[C@@H]3O[C@H]1C[C@H](N)[C@H](O)[C@H](C)O1 [DOX, doxorubicin]
IFN-γ production by CD8+ OT-I cells [1]: significantly higher
modulation in cytokine levels (IL12p70, TNF-α, IL-6, IL-10) [2]: not observed
intratumoral Foxp3+ T cell levels [2]: significant decrease

O=C(O)c1ccc2c(c1)nc(Nc1cccc(Cl)c1)c1ccncc12 [CX4945]
modulation in cytokine levels (IL12p70, TNF-α, IL-6, IL-10) [2]: not observed
intratumoral Foxp3+ T cell levels [2]: not observed
vaccine effect of treated cells [3]: did not induce any vaccine effect
response of IFN-γ-secreting effector cells (ELISPOT) against OVA and OVA class I peptide [4]: not able to generate this type of response
susceptibility to be phagocytosed by M1 macrophages [5]: not observed
susceptibility to be phagocytosed by M1 macrophages [6]: not observed
% PDL1+ cells [7]: 29.6%
IFM [7]: 16.2
PDL1 expression ([7]; in words): Differences were not observed
% PDL1+ cells [8]: 25.2%
IFM [8]: 15.23
PDL1 expression ([8]; in words): Differences were not observed
tumor volume, combined with anti-PDL1 antibody ([9]; as alone, plus 100 μg anti-PDL1 antibody intraperitoneal, days 9, 12, 15, 18): not observed
tumor progression (tumor volume), alone ([9]; peptide 40 mg/kg intraperitoneal or CX4945 75 mg/kg oral twice daily, days 9-13): not observed

CSCC[C@@H]1NC(=O)[C@H](Cc2c[nH]c3ccccc23)NC(=O)[C@@H](NC(=O)[C@H](C)NC(=O)[C@H](CCC(N)=O)NC(=O)[C@@H]2CCCN2C(=O)[C@@H]2CCCN2C(=O)[C@H](CCCNC(=N)N)NC(=O)[C@H](CCCNC(=N)N)NC(=O)[C@H](CCCNC(=N)N)NC(=O)[C@H](CCC(N)=O)NC(=O)[C@H](CCCNC(=N)N)NC(=O)[C@H](CCCNC(=N)N)NC(=O)[C@H](CCCCN)NC(=O)[C@H](CCCCN)NC(=O)[C@H](CCCNC(=N)N)NC(=O)CN)CSSC[C@@H](C(=O)O)NC(=O)[C@H]([C@@H](C)O)NC(=O)CNC(=O)[C@H](CC(C)C)NC(=O)[C@H](Cc2c[nH]cn2)NC(=O)[C@H](CCCNC(=N)N)NC(=O)[C@@H]2CCCN2C(=O)[C@H](CO)NC1=O [peptide identified as SEQ ID NO: 1] (H-GRKKRRQRRRPPQACWMSPRHLGTC-OH; disulfide 15-25)
toxicity to target cells [10]: showed toxicity
IC50 [11]: 40 µM

— US20240082392A1, “USE OF SYNTHETIC PEPTIDE FOR THE INDUCTION OF ANTITUMOR AND ANTIVIRAL IMMUNITY” (CENTRO DE INGENIERÍA GENÉTICA Y BIOTECNOLOGÍA, priority 2020, published 2024)
